US5986131A, “RXR selective ligands” (Hoffmann-La Roche Inc., priority 1997, dated 1999)
Like-named read-outs stand apart in the source and are kept apart here.

Experiments:
[1] = target: T1, RARα (Homo sapiens, UniProt P10276); assay: RARα activation (transactivation); assay type: cell-based
T1 sequence (P10276 1-462): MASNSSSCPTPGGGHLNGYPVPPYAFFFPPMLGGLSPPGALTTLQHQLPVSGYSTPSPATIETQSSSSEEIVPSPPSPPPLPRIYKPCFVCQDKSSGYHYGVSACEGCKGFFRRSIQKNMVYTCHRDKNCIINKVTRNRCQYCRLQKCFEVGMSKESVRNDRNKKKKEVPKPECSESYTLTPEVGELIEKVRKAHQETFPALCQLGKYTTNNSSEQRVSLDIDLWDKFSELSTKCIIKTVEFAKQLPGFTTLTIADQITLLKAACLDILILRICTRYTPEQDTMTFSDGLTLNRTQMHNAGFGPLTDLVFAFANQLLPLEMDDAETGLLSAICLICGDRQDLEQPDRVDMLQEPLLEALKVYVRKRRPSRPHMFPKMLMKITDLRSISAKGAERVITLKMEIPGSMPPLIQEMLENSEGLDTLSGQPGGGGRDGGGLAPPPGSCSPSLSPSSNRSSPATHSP
Description: (§1) Methods essentially as described in those publications were used to determine the binding and transactivation properties of retinoids reported in the Examples herein.

[2] = target: T2, RXRα (Homo sapiens, UniProt P19793); assay: RXRα activation (transactivation); assay type: cell-based; conditions: Table 1; read-out: Activation ED50, RXRα
T2 sequence (P19793 1-462): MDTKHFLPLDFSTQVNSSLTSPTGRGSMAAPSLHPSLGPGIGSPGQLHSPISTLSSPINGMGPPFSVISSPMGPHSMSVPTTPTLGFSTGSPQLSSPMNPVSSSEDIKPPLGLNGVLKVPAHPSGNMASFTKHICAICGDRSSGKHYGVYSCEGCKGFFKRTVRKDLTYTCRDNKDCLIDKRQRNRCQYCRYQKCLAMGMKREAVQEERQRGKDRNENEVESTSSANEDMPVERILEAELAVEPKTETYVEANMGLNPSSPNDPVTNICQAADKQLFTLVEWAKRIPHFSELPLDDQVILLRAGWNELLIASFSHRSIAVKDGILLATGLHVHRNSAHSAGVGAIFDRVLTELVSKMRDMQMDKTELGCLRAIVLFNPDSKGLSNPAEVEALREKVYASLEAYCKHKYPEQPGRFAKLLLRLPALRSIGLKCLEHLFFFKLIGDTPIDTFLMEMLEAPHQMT
Description: as §1

[3] = test system: HL-60 cells; assay: HL-60 differentiation (NBT reduction); assay type: cell-based, human
Experimental: Under the influence of retinoids, HL-60 cells (a human myeloid leukemia cell line) differentiate into granulocytes. This differentiation of HL-60 cells into granulocytes is mediated by RARα, and so provides the basis for the use of retinoids to treat leukemia.
Retinoid-induced differentiation of HL-60 cells was assayed by measuring their oxidative burst potential via the reduction of NBT (Nitroblueterstazolium) [Pick et al., J. Reticuloendothelial Soc., 30:581-593 (1981)].
HL-60 cells were maintained in RPMI 1640 medium supplemented with 10% FCS, 2mM L-glutamine, ImM sodium pyruvate, 1% non-essential amino acids, 50 U/ml penicillin and 50 μg/ml streptomycin (=RPMI/FCS).
30,000 cells/[…] of RPMI/FCS were seeded into flat-bottomed microtiter wells. 10 μl of retinoids diluted in complete medium were added at the same time to yield final concentrations betweeen 10^-11 and 10^-6 M (stock solutions of 10^-2 M in ethanol were kep at -20° C. and protected from light). After 3 days, the medium was removed with a multichannel pipette and replaced with 100 μl of NBT solution (1 mg/ml in PBS with 200 nM phorbol myristate acetate (PMA). Following an additional hour incubation at 37° C. the NBT solution was removed and 100 μl of 10% SDS in 0.01 N HCl was added. The amount of the reduced NBT was quantified photometrically at 540 nm using an automated plate reader. The mean of 3 wells was calculated. S.E.M. were between 5 and 10%.

Q: With CC1=C(/C=C/C2=C(/C=C/C(C)=C/C(=O)O)CCCC2)C(C)(C)CCC1 [Example 4, (2E,4E)-3-Methyl-5-(2-((E)-2(2,6,6-trimethyl-1-cyclohexen-1-yl)ethenyl)-1-cyclohexen-1-yl)-2,4-pentadienoic acid] as the molecule, how does the EC50 ([1]; Table 1, read-out: Activation ED50, RARα) read?
A: > 10 µM

Q: What about the EC50 ([1]; Table 2, read-out: RARα activation ED50) of the same molecule?
A: > 10 µM

Q: What about the EC50 [2] of the same molecule?
A: 1.7 nM

Q: What about the “activity as inducer of HL-60 differentiation compared with all-trans retinoic acid” value ([3]; FIG. 1) of the same molecule?
A: clearly less active

Q: What about the “HL-60 differentiation activity by itself at potentiating concentrations” value ([3]; FIGS. 2 and 3, alone) of the same molecule?
A: not active by itself

Q: And the “activity as inducer of HL-60 differentiation” value ([3]; ×10^-6 M, alone)?
A: virtually inactive
